The numbers were not newly measured in US20040258731A1, “Preparation approriate for cartilage tissue formation” (priority 2001, published 2004), which cites them from elsewhere.

In series [1] the test system is articular cartilage.
Series [2] has as its system articular cartilage. The conditions noted are these: experimental arthritis model animals, intraarticular administration.

Consider TGF-β, for which the synovitis entry in series [1] (in vivo) is reported as “marked synovitis”.

For “TGF-β1: an isoform of TGF-β (Transforming Growth Factor β)”, the “arthritis-induced loss of proteoglycans in articular cartilage” value in series [2] was “suppresses arthritis-induced loss of proteoglycans in articular cartilage”. Moreover, the chondrogenesis entry in series [1] (intraarticularly administered) is “promote chondrogenesis”.
